Experimental data as given in BindingDB's records for patent US20240352053 (Betta Pharmaceuticals, 2024).
pIC50: −log10 of the molar value.

Legend:
Assay in all cases: Kinase Inhibition Assay
[1] = biological target: Epidermal growth factor receptor (Homo sapiens, UniProt P00533)
Description: (§1) Mobility shift assays were performed to determine the compound's inhibitory activity against EGFR delta19del/T790M/C797S, EGFR WT, and IGF1R kinases. The enzyme reaction scheme is as follows: 1. Prepare 1*kinase buffer as follows. Final 1* Kinase buffer concentration HEPES PH 7.5 (mM) 50 Brij-35 0.0150% DTT (mM) 2 Mgcl2, Mncl2 (mM) 10 2. Preparation of compound concentration gradient: The starting concentration of the test compound is 3000 nM or 100 nM, dilute it in the 384-source plate to a 100% DMSO solution of 100 times the final concentration, and use precision to dilute the compound 3 times to 10 concentrations. Use the Dispenser Echo 550 to transfer 250 nL of 100x the final concentration of compound to the destination plate OptiPlate-384F. 3. Prepare a kinase solution with 2.5 times the final concentration using 1x Kinase buffer. 4. Add 10 uL of 2.5 times the final concentration of kinase solution to the compound wells and positive control wells respectively; add 10 uL of 1x Kinase buffer to the negative control wells. 5. Centrifuge at 1000 rpm for 30 seconds, shake and mix the reaction plate and incubate at room temperature for 10 minutes. 6. Use 1x Kinase buffer to prepare a mixed solution of ATP and Kinase substrate at 5/3 times the final concentration. 7. Add 15 uL of a mixed solution of ATP and substrate at 5/3 times the final concentration to start the reaction. 8. Centrifuge the 384-well plate at 1000 rpm for 30 seconds, mix well by shaking, and incubate at room temperature for the corresponding time. 9. Add 30 uL of stop detection solution to stop the kinase reaction, centrifuge at 1000 rpm for 30 seconds, and shake to mix. 10. Use Caliper EZ Reader to read conversion rates. 11. Calculation formula

[2] = biological target: T1, Epidermal growth factor receptor [1-18,20-1210,T790M,C797S] (Human, UniProt P00533, T790M/C797S)
T1 construct: 1-18,20-1210
Description: as §1

[3] = biological target: Insulin-like growth factor 1 receptor (Homo sapiens, UniProt P08069)
Chain of Insulin-like growth factor 1 receptor (P08069 31-736 limits assumed): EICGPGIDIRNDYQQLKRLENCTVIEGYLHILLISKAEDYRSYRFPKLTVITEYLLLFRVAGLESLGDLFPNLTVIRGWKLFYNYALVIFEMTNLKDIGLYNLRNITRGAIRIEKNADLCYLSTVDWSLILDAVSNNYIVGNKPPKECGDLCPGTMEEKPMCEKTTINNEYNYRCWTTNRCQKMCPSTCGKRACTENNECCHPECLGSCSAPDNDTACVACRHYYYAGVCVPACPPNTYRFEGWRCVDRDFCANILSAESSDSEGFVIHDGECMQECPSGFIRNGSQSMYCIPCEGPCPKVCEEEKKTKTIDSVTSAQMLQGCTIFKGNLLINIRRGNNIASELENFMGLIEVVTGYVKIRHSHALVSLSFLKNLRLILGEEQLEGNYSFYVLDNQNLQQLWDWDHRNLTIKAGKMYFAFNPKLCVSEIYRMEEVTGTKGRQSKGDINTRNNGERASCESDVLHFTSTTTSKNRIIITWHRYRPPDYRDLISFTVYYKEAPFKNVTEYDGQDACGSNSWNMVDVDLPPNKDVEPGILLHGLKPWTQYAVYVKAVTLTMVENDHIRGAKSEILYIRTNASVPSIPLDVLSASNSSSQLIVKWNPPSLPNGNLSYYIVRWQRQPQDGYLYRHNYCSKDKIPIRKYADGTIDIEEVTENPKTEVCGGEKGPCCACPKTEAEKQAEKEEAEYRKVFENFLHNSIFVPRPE
Chain of Insulin-like growth factor 1 receptor (P08069 741-1367 limits assumed): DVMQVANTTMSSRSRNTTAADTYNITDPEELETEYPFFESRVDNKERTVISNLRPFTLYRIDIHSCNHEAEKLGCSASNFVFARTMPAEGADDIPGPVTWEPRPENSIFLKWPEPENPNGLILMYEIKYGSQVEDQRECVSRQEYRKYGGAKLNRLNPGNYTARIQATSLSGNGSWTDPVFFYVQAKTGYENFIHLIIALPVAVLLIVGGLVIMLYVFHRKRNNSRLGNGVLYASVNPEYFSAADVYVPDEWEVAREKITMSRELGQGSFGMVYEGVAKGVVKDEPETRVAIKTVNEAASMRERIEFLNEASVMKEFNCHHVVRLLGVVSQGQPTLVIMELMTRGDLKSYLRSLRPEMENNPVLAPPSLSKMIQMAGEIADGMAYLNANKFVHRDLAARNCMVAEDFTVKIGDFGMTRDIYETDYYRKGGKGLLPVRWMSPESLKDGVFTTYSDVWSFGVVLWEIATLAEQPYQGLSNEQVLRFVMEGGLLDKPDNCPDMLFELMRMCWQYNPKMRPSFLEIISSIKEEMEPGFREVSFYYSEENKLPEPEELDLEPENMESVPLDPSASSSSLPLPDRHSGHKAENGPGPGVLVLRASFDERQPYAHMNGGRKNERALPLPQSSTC
Description: as §1

Chain of Epidermal growth factor receptor (P00533 whole entry): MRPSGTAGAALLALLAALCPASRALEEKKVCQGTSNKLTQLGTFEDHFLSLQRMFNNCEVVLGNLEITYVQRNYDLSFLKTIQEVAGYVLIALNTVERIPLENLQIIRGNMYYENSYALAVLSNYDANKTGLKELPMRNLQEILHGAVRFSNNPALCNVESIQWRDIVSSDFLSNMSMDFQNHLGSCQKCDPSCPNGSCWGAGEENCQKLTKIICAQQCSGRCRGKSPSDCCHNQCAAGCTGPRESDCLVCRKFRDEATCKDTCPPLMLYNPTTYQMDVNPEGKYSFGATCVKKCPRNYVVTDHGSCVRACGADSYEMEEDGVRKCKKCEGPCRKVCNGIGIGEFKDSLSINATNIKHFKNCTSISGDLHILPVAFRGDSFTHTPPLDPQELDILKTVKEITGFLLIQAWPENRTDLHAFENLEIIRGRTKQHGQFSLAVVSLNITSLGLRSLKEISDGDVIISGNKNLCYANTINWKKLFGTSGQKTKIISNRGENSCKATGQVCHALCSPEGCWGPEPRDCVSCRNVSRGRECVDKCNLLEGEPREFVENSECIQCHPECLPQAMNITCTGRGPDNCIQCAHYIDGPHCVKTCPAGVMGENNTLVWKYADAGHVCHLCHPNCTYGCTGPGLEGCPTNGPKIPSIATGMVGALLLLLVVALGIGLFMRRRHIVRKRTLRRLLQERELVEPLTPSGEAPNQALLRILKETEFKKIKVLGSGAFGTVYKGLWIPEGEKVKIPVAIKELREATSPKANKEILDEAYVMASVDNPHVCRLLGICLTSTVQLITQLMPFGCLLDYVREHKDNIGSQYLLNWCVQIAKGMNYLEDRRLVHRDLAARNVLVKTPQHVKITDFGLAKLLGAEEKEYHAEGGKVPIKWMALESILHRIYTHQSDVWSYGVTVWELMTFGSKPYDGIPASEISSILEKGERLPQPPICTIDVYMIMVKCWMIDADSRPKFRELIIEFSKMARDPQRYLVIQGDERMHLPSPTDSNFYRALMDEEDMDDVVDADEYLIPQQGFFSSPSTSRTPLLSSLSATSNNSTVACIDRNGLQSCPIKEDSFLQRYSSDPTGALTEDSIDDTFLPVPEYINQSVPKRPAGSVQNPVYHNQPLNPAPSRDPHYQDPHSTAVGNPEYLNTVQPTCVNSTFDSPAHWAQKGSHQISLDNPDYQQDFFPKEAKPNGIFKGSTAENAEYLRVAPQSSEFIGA

| pIC50 [1] | pIC50 [2] | pIC50 [3] | Compound |
| --- | --- | --- | --- |
| 8.29 | 9.70 | 8.02 | CCc1cc(Nc2ncc(Br)c(Nc3ccc4ncccc4c3P(C)(C)=O)n2)c(OC)cc1N1CCC(N2CCN(C)CC2)CC1 [US20240352053, Compound Control Example 1] |
| – | 9.52 | – | COc1cc(N2CCC(N3CCN(C)CC3)CC2)c(C)cc1Nc1ncc(Br)c(Nc2ccc3nc(C4CC4)ccc3c2P(C)(C)=O)n1 [US20240352053, Compound Formula I] |
